Calls of active or inactive are those of the source. No cut-off for these calls is given here.
Assays:
SARS-CoV-2 [1] = settings: dose 30 mg/kg; route po; time 4 day
SARS-CoV-2 [2] = settings: dose 60 mg/kg; route po; time 4 day
SARS-CoV-2 [3] = settings: dose 60 mg/kg; route po; time 4 day; remark: listed apart in the source
SARS-CoV-2 [4] = settings: dose 30 mg/kg; route po; time 4 day; remark: listed apart in the source
SARS-CoV-2 [5] = assay type: functional, organism-based; settings: Severe acute respiratory syndrome coronavirus 2; MA10; dose 30.0 mg/kg, route po, time 2-5 day
SARS-CoV-2 [6] = assay type: functional, organism-based; settings: Severe acute respiratory syndrome coronavirus 2; MA10; Pneumocyte; dose 60.0 mg/kg, route po, time 2-5 day
SARS-CoV-2 [7] = assay type: functional, organism-based; settings: Severe acute respiratory syndrome coronavirus 2; MA10; dose 60.0 mg/kg, route po, time 3-5 day
SARS-CoV-2 [8] = settings: dose 30 mg/kg; route po; time 5 day
SARS-CoV-2 [9] = assay type: functional, organism-based; settings: Severe acute respiratory syndrome coronavirus 2; MA10; dose 30.0 mg/kg, route po, time 2-5 day; remark: listed apart in the source
SARS-CoV-2 [10] = assay type: functional, organism-based; settings: Severe acute respiratory syndrome coronavirus 2; MA10; dose 30.0 mg/kg, route po, time 2-5 day; remark: listed apart in the source
SARS-CoV-2 [11] = assay type: functional, organism-based; settings: Severe acute respiratory syndrome coronavirus 2; MA10; dose 60.0 mg/kg, route po, time 2-5 day
SARS-CoV-2 [12] = assay type: functional, organism-based; settings: Severe acute respiratory syndrome coronavirus 2; MA10; dose 30.0 mg/kg, route po, time 2-5 day; remark: listed apart in the source
SARS-CoV-2 [13] = assay type: functional, organism-based; settings: Severe acute respiratory syndrome coronavirus 2; MA10; dose 60.0 mg/kg, route po, time 2-5 day; remark: listed apart in the source
SARS-CoV-2 [14] = assay type: functional, organism-based; settings: Severe acute respiratory syndrome coronavirus 2; MA10; Pneumocyte; dose 60.0 mg/kg, route po, time 2-5 day; remark: listed apart in the source
SARS-CoV-2 [15] = assay type: functional, organism-based; settings: Severe acute respiratory syndrome coronavirus 2; MA10; dose 30.0 mg/kg, route po, time 2-5 day; remark: listed apart in the source
SARS-CoV-2 [16] = assay type: functional, organism-based; settings: Severe acute respiratory syndrome coronavirus 2; MA10; dose 30.0 mg/kg, route po, time 2-5 day; remark: listed apart in the source
SARS-CoV-2 [17] = assay type: functional, organism-based; settings: Severe acute respiratory syndrome coronavirus 2; MA10; dose 60.0 mg/kg, route po, time 2-5 day; remark: listed apart in the source
SARS-CoV-2 [18] = assay type: functional, organism-based; settings: Severe acute respiratory syndrome coronavirus 2; MA10; dose 30.0 mg/kg, route po, time 2-5 day; remark: listed apart in the source
SARS-CoV-2 [19] = assay type: functional, organism-based; settings: Severe acute respiratory syndrome coronavirus 2; MA10; Pneumocyte; dose 30.0 mg/kg, route po, time 2-5 day
SARS-CoV-2 [20] = assay type: functional, organism-based; settings: Severe acute respiratory syndrome coronavirus 2; MA10; dose 60.0 mg/kg, route po, time 2-5 day; remark: listed apart in the source
SARS-CoV-2 [21] = assay type: functional, organism-based; settings: Severe acute respiratory syndrome coronavirus 2; MA10; dose 60.0 mg/kg, route po, time 2-5 day; remark: listed apart in the source
SARS-CoV-2 [22] = settings: dose 60 mg/kg; route po; time 2 day
SARS-CoV-2 [23] = assay type: functional, organism-based; settings: Severe acute respiratory syndrome coronavirus 2; MA10; dose 60.0 mg/kg, route po, time 2-5 day; remark: listed apart in the source
SARS-CoV-2 [24] = assay type: functional, organism-based; settings: Severe acute respiratory syndrome coronavirus 2; MA10; dose 60.0 mg/kg, route po, time 5.0 day
SARS-CoV-2 [25] = assay type: functional, organism-based; settings: Severe acute respiratory syndrome coronavirus 2; MA10; dose 30.0 mg/kg, route po, time 5.0 day
SARS-CoV-2 [26] = assay type: functional, organism-based; settings: Severe acute respiratory syndrome coronavirus 2; MA10; dose 60.0 mg/kg, route po, time 2-5 day; remark: listed apart in the source
SARS-CoV-2 [27] = assay type: functional, organism-based; settings: Severe acute respiratory syndrome coronavirus 2; MA10; dose 60.0 mg/kg, route po, time 2-5 day; remark: listed apart in the source
SARS-CoV-2 [28] = settings: dose 30 mg/kg; route po; time 5 day; remark: listed apart in the source
SARS-CoV-2 [29] = assay type: functional, organism-based; settings: Severe acute respiratory syndrome coronavirus 2; MA10; dose 30.0 mg/kg, route po, time 2.0 day
SARS-CoV-2 [30] = assay type: functional, organism-based; settings: Severe acute respiratory syndrome coronavirus 2; MA10; dose 60.0 mg/kg, route po, time 2-5 day; remark: listed apart in the source
SARS-CoV-2 [31] = assay type: functional, organism-based; settings: Severe acute respiratory syndrome coronavirus 2; MA10; dose 30.0 mg/kg, route po, time 2-5 day; remark: listed apart in the source
SARS-CoV-2 [32] = settings: dose 60 mg/kg; route po; time 5 day
SARS-CoV-2 [33] = assay type: functional, organism-based; settings: Severe acute respiratory syndrome coronavirus 2; MA10; dose 30.0 mg/kg, route po, time 2-5 day; remark: listed apart in the source
SARS-CoV-2 [34] = assay type: functional, organism-based; settings: Severe acute respiratory syndrome coronavirus 2; MA10; Pneumocyte; dose 30.0 mg/kg, route po, time 2-5 day; remark: listed apart in the source
SARS-CoV-2 [35] = assay type: functional, organism-based; settings: Severe acute respiratory syndrome coronavirus 2; MA10; dose 30.0 mg/kg, route po, time 2-5 day; remark: listed apart in the source

CC(C)C(=O)OC[C@H]1O[C@@H](n2cc/c(=N\O)[nH]c2=O)[C@H](O)[C@@H]1O [MOLNUPIRAVIR]
log(activity) (SARS-CoV-2 [1]): 2.1
log(activity) (SARS-CoV-2 [2]): 2.6
log(activity) (SARS-CoV-2 [3]): 2.9

CC(C)C(=O)OC[C@H]1O[C@@](C#N)(c2ccc3c(N)ncnn23)[C@H](OC(=O)C(C)C)[C@@H]1OC(=O)C(C)C
log(activity) (SARS-CoV-2 [4]): >2.9
log(activity) (SARS-CoV-2 [2]): >2.9

CCCCCCCCCCCCCCCCCCOC[C@H](COP(=O)(O)OC[C@H]1O[C@@](C#N)(c2ccc3c(N)ncnn23)[C@H](O)[C@@H]1O)OCc1ccccc1
Activity (SARS-CoV-2 [5]): inactive
Activity (SARS-CoV-2 [6]): inactive
Activity (SARS-CoV-2 [7]): Active
log(activity) (SARS-CoV-2 [8]): >2.14
Activity (SARS-CoV-2 [9]): inactive
Activity (SARS-CoV-2 [10]): inactive
Activity (SARS-CoV-2 [11]): inactive
Activity (SARS-CoV-2 [12]): inactive
Activity (SARS-CoV-2 [13]): inactive
Activity (SARS-CoV-2 [14]): inactive
Activity (SARS-CoV-2 [15]): inactive
Activity (SARS-CoV-2 [16]): inactive
Activity (SARS-CoV-2 [17]): inactive
Activity (SARS-CoV-2 [18]): inactive
Activity (SARS-CoV-2 [19]): inactive
Activity (SARS-CoV-2 [20]): inactive
Activity (SARS-CoV-2 [21]): inactive
log(activity) (SARS-CoV-2 [22]): 1.52
Activity (SARS-CoV-2 [23]): inactive
Activity (SARS-CoV-2 [24]): Active
Activity (SARS-CoV-2 [25]): inactive
Activity (SARS-CoV-2 [26]): inactive
Activity (SARS-CoV-2 [27]): inactive
log(activity) (SARS-CoV-2 [28]): >2.14
Activity (SARS-CoV-2 [29]): Active
Activity (SARS-CoV-2 [30]): inactive
Activity (SARS-CoV-2 [31]): inactive
log(activity) (SARS-CoV-2 [32]): >2.14
Activity (SARS-CoV-2 [33]): inactive
Activity (SARS-CoV-2 [34]): inactive
Activity (SARS-CoV-2 [35]): inactive

From ChEMBL document CHEMBL5380858 (J Med Chem, 2023)
